Here are results for 7 compounds from article PMC6199744, “Development of Chemical Proteomics for the Folateome and Analysis of the Kinetoplastid Folateome” (ACS Infectious Diseases, 2018).

Structures are written as SMILES. Like-named read-outs stand apart in the source and are kept apart here.

Holding throughout (format): binding
Assay [1] has as its target T1, HeLa cell extract proteins (Homo sapiens, UniProt P08579).
T1 construct: endogenous in cells; host or cells: HeLa cell extract

The target in assay [2] is T2, HeLa cell extract proteins (Homo sapiens, UniProt P23528).
T2 construct: endogenous in cells; host or cells: HeLa cell extract

The target in assay [3] is T3, HeLa cell extract proteins (Homo sapiens, UniProt P49411).
T3 construct: endogenous in cells; host or cells: HeLa cell extract

Assay [4] addresses T4, HeLa cell extract proteins (Homo sapiens, UniProt P57740).
T4 construct: endogenous in cells; host or cells: HeLa cell extract
T4 sequence (P57740 1-925): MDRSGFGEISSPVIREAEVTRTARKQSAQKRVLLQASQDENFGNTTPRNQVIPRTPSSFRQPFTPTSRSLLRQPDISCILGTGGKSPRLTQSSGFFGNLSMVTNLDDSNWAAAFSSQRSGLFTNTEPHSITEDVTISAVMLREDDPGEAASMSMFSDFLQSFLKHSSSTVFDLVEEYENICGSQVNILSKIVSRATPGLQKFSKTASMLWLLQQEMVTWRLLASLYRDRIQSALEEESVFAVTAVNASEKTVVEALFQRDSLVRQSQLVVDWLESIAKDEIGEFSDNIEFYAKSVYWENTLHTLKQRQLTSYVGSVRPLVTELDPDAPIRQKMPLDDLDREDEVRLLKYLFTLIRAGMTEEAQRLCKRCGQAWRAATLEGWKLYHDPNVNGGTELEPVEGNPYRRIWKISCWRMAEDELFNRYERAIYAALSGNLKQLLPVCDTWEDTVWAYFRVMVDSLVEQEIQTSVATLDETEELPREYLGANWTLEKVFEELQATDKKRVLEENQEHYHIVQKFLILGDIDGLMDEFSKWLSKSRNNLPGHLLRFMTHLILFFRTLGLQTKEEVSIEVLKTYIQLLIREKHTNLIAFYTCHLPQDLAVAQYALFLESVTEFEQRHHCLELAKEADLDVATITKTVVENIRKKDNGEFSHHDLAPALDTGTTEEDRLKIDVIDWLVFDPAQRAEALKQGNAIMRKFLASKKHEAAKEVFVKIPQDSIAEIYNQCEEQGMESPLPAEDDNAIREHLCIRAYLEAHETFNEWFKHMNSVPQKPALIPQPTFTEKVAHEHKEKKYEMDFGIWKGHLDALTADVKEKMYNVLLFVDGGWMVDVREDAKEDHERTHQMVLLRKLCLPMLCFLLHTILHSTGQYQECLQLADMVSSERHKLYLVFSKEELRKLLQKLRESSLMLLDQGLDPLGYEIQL

The target of assay [5] is T5, HeLa cell extract proteins (Homo sapiens, UniProt Q969X5).
T5 construct: endogenous in cells; host or cells: HeLa cell extract
T5 sequence (Q969X5 1-290): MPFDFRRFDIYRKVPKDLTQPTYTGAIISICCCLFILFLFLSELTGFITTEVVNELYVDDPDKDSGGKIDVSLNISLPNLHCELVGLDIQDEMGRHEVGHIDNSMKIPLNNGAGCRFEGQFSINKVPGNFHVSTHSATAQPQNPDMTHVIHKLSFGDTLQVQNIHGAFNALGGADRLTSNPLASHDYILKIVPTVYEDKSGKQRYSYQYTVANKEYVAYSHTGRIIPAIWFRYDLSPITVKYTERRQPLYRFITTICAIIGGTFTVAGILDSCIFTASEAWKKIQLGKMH

Assay [6] concerns the target T6, HeLa cell extract proteins (Homo sapiens, UniProt Q9BXR0).
T6 construct: endogenous in cells; host or cells: HeLa cell extract
T6 sequence (Q9BXR0 1-403): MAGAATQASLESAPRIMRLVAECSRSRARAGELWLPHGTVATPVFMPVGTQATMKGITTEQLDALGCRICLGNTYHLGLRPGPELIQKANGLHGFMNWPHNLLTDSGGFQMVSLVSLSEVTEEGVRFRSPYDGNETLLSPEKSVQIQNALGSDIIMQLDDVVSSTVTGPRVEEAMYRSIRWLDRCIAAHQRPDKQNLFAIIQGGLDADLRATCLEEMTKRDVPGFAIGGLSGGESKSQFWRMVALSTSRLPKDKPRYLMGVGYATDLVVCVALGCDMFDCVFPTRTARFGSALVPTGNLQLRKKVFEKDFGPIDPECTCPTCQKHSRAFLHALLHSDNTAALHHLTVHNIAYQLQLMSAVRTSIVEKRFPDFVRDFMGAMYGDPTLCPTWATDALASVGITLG

Setting [7] is: HeLa, protein CFL1 (COFILIN-1.).

T2 sequence (P23528 whole entry): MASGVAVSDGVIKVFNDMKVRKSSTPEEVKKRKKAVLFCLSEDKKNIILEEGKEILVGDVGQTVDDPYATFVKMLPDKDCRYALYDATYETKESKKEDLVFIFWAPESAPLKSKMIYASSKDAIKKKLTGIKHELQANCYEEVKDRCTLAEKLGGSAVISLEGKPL
T1 sequence (P08579 whole entry): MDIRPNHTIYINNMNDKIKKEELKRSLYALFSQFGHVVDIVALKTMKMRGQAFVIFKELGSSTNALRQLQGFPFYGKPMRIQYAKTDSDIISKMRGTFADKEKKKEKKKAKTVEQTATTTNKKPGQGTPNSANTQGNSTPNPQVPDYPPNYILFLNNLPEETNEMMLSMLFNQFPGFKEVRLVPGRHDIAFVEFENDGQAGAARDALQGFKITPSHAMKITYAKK

For `Nc1nc2c(c(=O)[nH]1)N(C=O)C(CNc1ccc(C(=O)N[C@@H](CCC(=O)O)C(=O)O)cc1)CN2` (stereo partly drawn) [LEU, leucovorin], the “fold changes relative to vehicle control” value stood at 1 in assay [1] (HeLa, protein SNRPB2); 0.76 in assay [2] (protein CFL1, HeLa); 0.93 in assay [3] (protein TUFM, HeLa); 1.01 in assay [4] (HeLa, protein NUP107); 0.77 in assay [5] (protein ERGIC1, HeLa); 0.96 in assay [6] (protein QTRT1, HeLa).
With `Nc1nc2[nH]cc(CCc3ccc(C(=O)N[C@@H](CCC(=O)O)C(=O)O)cc3)c2c(=O)[nH]1` [PTX, pemetrexed], the “fold changes relative to vehicle control” value in assay [1] amounted to 0.98; in assay [2] it was 0.79; in assay [3], 0.97; in assay [4] it was 0.98; in assay [5] it was 0.85; in assay [6], 0.84.
For the compound `CCCCCCOc1ccc(Cc2cnc(N)nc2N)cc1` [compound 1], the “fold changes relative to vehicle control” value in assay [1] (HeLa, protein SNRPB2) is given as 1.22; in assay [2] (setting [7]) it was 1.27 fold; in assay [3] (protein TUFM, HeLa), 1.18; in assay [4] (HeLa, protein NUP107), 0.98; in assay [5] (captured protein ERGIC1, HeLa), 0.94; in assay [6] (protein QTRT1, HeLa), 0.51.
Take `CCCCCCOc1cccc(Cc2cnc(N)nc2N)c1` [compound 2]: the “fold changes relative to vehicle control” value in assay [1] (HeLa, protein SNRPB2) was determined as 1.43; in assay [2] (setting [7]), 2.02 fold; in assay [3] (protein TUFM, HeLa), 1.68; in assay [4] (HeLa, protein NUP107) it was 1.03; in assay [5] (captured protein ERGIC1, HeLa), 1.02; in assay [6] (protein QTRT1, HeLa), 1.05.
Consider `Nc1nc2cccc(-c3ccccc3)c2n1Cc1ccc(Cl)c(Cl)c1` [compound 3], for which the “fold changes relative to vehicle control” value in assay [1] (HeLa, protein SNRPB2) amounted to 0.76; in assay [2] (setting [7]) it was 0.82 fold; in assay [3] (protein TUFM, HeLa), 0.92; in assay [4] (HeLa, protein NUP107) it was 1.07; in assay [5] (captured protein ERGIC1, HeLa), 1.1; in assay [6] (protein QTRT1, HeLa) it was 1.03.
Consider `NCCOCCOCC(=O)Nc1nc2ncc(CNc3ccc(C(=O)NC(CCC(=O)O)C(=O)O)cc3)nc2c(=O)[nH]1` (stereo not drawn) [compound 6], for which the “fold changes relative to vehicle control” value was determined as 0.93 in assay [1] (HeLa, protein SNRPB2); 0.89 in assay [2] (protein CFL1, HeLa); 1.07 in assay [3] (protein TUFM, HeLa); 1.18 in assay [4] (HeLa, protein NUP107); 0.86 in assay [5] (protein ERGIC1, HeLa); 0.28 in assay [6] (protein QTRT1, HeLa).
Regarding `NCCCNc1ccc(C(=O)NC(CCC(=O)O)C(=O)O)cc1` (stereo not drawn) [compound 7], the “fold changes relative to vehicle control” value in assay [1] (HeLa, protein SNRPB2) turned out to be 0.77; in assay [2] (protein CFL1, HeLa), 0.69; in assay [3] (protein TUFM, HeLa), 0.88; in assay [4] (HeLa, protein NUP107) it was 1.26; in assay [5] (protein ERGIC1, HeLa) it was 1.31; in assay [6] (protein QTRT1, HeLa), 0.98.
